Measurements published in patent US11051515B2, “3-acyl-benzamides and their use as herbicides” (Bayer Aktiengesellschaft, priority 2017, dated 2021).

Columns and labels:
STEME [1] = assay: Post-emergence action against STEME; assay type: in vivo, Stellaria media; conditions: post-emergence, dosage 80 g/ha
Summary of the method: (§1)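 Post-emergence foliar spray on greenhouse plants at the one-leaf stage, using wettable-powder or emulsion-concentrate formulations in water (600 to […], plus 0.2% wetting agent). Damage scored by eye roughly 3 weeks later against untreated plants: 0% = like control, 100% = dead.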

SETVI [2] = assay: Pre-emergence action against SETVI; assay type: in vivo, Setaria viridis; conditions: pre-emergence, dosage 320 g/ha, scored visually after 3 weeks vs untreated controls
Summary of the method: (§2)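 Seeds sown in sandy loam in wood-fiber pots and covered with soil. Greenhouse growth; visual damage scored after 3 weeks versus untreated controls (100% = dead, 0% = like control).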

STEME [3] = assay: Pre-emergence action against STEME; assay type: in vivo, Stellaria media; conditions: Dosage 320 g/ha, pre-emergence
Summary of the method: as §2

ABUTH [4] = assay: Pre-emergence action against ABUTH; assay type: in vivo, Abutilon theophrasti
Summary of the method: as §2

LOLRI = assay: Pre-emergence action against LOLRI; assay type: in vivo, Lolium rigidum; conditions: dosage 320 g/ha, scored visually after 3 weeks vs untreated controls
From the text: Seeds of monocotyledonous and dicotyledonous weed plants and crop plants are laid out in sandy loam soil in wood-fiber pots and covered with soil. The compounds of the invention, formulated in the form of wettable powders (WP) or as emulsion concentrates (EC), are then applied to the surface of the covering soil in the form of an aqueous suspension or emulsion at a water application rate equating to […], with addition of 0.2% wetting agent. After the treatment, the pots are placed in a greenhouse and kept under good growth conditions for the trial plants. The damage to the test plants is scored visually after a test period of 3 weeks by comparison with untreated controls (herbicidal activity in percent (%): 100% activity=the plants have died, 0% activity=like control plants).

MATIN [5] = assay: Pre-emergence action against MATIN; assay type: in vivo, Matricaria inodora
Summary of the method: as §2

ECHCG [6] = assay: Pre-emergence action against ECHCG; assay type: in vivo, Echinochloa crus-galli; conditions: pre-emergence, dosage 320 g/ha, scored visually after 3 weeks vs untreated controls
Summary of the method: as §2

VERPE [7] = assay: Pre-emergence action against VERPE; assay type: in vivo, Veronica persica; conditions: Dosage 320 g/ha, pre-emergence
Summary of the method: as §2

CYPES [8] = assay: Pre-emergence action against CYPES; assay type: in vivo, Cyperus esculentus; conditions: pre-emergence, dosage 320 g/ha, scored visually after 3 weeks vs untreated controls
Summary of the method: as §2

VIOTR [9] = assay: Pre-emergence action against VIOTR; assay type: in vivo, Viola tricolor; conditions: for Herbicidal efficacy against VIOTR: 20 g of a.i./ha
Summary of the method: as §2

AMARE [10] = assay: Pre-emergence action against AMARE; assay type: in vivo, Amaranthus retroflexus
Summary of the method: as §2

VERPE [11] = assay: Post-emergence action against VERPE; assay type: in vivo, Veronica persica; conditions: dosage 80 g/ha
Summary of the method: as §1

MATIN [12] = assay: Post-emergence action against MATIN; assay type: in vivo, Matricaria inodora; conditions: for Post-emergence action against MATIN (herbicidal action in percent): dosage 80 g/ha, visual assessment about 3 weeks after treatment vs untreated controls
Summary of the method: as §1

ECHCG [13] = assay: Post-emergence action against ECHCG; assay type: in vivo, Echinochloa crus-galli; conditions: post-emergence, dosage 80 g/ha, visual assessment about 3 weeks after treatment vs untreated controls
Summary of the method: as §1

POLCO [14] = assay: Post-emergence action against POLCO; assay type: in vivo, Polygonum convolvulus; conditions: for Post-emergence action against POLCO: dosage 80 g/ha
Summary of the method: as §1

ABUTH [15] = assay: Post-emergence action against ABUTH; assay type: in vivo, Abutilon theophrasti; conditions: for Post-emergence action against ABUTH (herbicidal action in percent): dosage 80 g/ha, visual assessment about 3 weeks after treatment vs untreated controls
Summary of the method: as §1

POLCO [16] = assay: Pre-emergence action against POLCO; assay type: in vivo, Polygonum convolvulus; conditions: Dosage 320 g/ha, pre-emergence
Summary of the method: as §2

PHBPU [17] = assay: Pre-emergence action against PHBPU; assay type: in vivo, Pharbitis purpurea; conditions: Dosage 320 g/ha, pre-emergence
Summary of the method: as §2

AVEFA [18] = assay: Post-emergence action against AVEFA; assay type: in vivo, Avena fatua; conditions: post-emergence, dosage 80 g/ha, visual assessment about 3 weeks after treatment vs untreated controls
Summary of the method: as §1

SETVI [19] = assay: Post-emergence action against SETVI; assay type: in vivo, Setaria viridis; conditions: post-emergence, dosage 80 g/ha, visual assessment about 3 weeks after treatment vs untreated controls
Summary of the method: as §1

CYPES [20] = assay: Post-emergence action against CYPES; assay type: in vivo, Cyperus esculentus; conditions: for Post-emergence action against CYPES (herbicidal action in percent): dosage 80 g/ha, visual assessment about 3 weeks after treatment vs untreated controls
Summary of the method: as §1

ALOMY [21] = assay: Post-emergence action against ALOMY; assay type: in vivo, Alopecurus myosuroides
Procedure: Seeds of monocotyledonous and dicotyledonous weed and crop plants are laid out in sandy loam soil in wood-fiber pots, covered with soil and cultivated in a greenhouse under good growth conditions. 2 to 3 weeks after sowing, the test plants are treated at the one-leaf stage. The compounds of the invention, formulated in the form of wettable powders (WP) or as emulsion concentrates (EC), are then sprayed onto the green parts of the plants in the form of an aqueous suspension or emulsion at a water application rate equating to […], with addition of 0.2% wetting agent. After the test plants have been left to stand in the greenhouse under optimal growth conditions for about 3 weeks, the action of the preparations is assessed visually in comparison to untreated controls (herbicidal action in percent (%): 100% activity=the plants have died, 0% activity=like control plants). […] At the same time, inventive compounds leave Gramineae crops such as barley, wheat, rye, millet/Sorghum, corn or rice virtually undamaged when applied post-emergence, even at high active ingredient dosages. In addition, some substances are also harmless to dicotyledonous crops such as soya, cotton, oilseed rape, sugar beet or potatoes. Some of the compounds according to the invention have high selectivity and are therefore suitable for controlling unwanted vegetation in agricultural crops by the post-emergence method. The data of Tables B18 to B34 below illustrate, in an exemplary manner, the […] herbicidal action of the compounds according to the invention, the herbicidal activity being stated in percent.

PHBPU [22] = assay: Post-emergence action against PHBPU; assay type: in vivo, Pharbitis purpurea; conditions: post-emergence, dosage 80 g/ha
Summary of the method: as §1

VIOTR [23] = assay: Post-emergence action against VIOTR; assay type: in vivo, Viola tricolor; conditions: for Post-emergence action against VIOTR: dosage 80 g/ha
Summary of the method: as §1

AMARE [24] = assay: Post-emergence action against AMARE; assay type: in vivo, Amaranthus retroflexus; conditions: post-emergence, dosage 80 g/ha, visual assessment about 3 weeks after treatment vs untreated controls
Summary of the method: as §1

ALOMY [25] = assay: Pre-emergence action against ALOMY; assay type: in vivo, Alopecurus myosuroides; conditions: dosage 320 g/ha; pre-emergence; scored visually after 3 weeks vs untreated controls; 100% = plants have died, 0% = like control plants
Summary of the method: as §2

AVEFA [26] = assay: Pre-emergence action against AVEFA; assay type: in vivo, Avena fatua; conditions: dosage 320 g/ha, scored visually after 3 weeks vs untreated controls
Summary of the method: as §2

[27] = Table V7, pre-emergence, 20 g of a.i./ha
[28] = pre-emergence, dosage 320 g/ha, scored visually after 3 weeks vs untreated controls
[29] = Table V17, post-emergence, 5 g of a.i./ha
[30] = Table V20, post-emergence, 80 g of a.i./ha

Row | SMILES | Post-emergence action against STEME (STEME [1]) | SETVI (Table B8, pre-emergence herbicidal activity) (SETVI [2]) | Post-emergence action against VERPE (VERPE [11]) | Pre-emergence action against ABUTH (herbicidal activity) (ABUTH [4]; [28]) | Post-emergence action against MATIN (herbicidal action in percent) (MATIN [12]) | Post-emergence action against ECHCG (herbicidal action in percent) (ECHCG [13]) | Post-emergence action against ABUTH (herbicidal action in percent) (ABUTH [15]) | Pre-emergence action against MATIN (MATIN [5]; Dosage 320 g/ha, pre-emergence) | Pre-emergence action against ECHCG (herbicidal activity) (ECHCG [6]) | Pre-emergence action against PHBPU (PHBPU [17]) | Pre-emergence action against VERPE (VERPE [7]) | Post-emergence action against SETVI (herbicidal action in percent) (SETVI [19]) | Pre-emergence action against CYPES (herbicidal activity) (CYPES [8]) | Post-emergence action against PHBPU (PHBPU [22]) | Post-emergence action against VIOTR (VIOTR [23]) | Post-emergence action against AMARE (herbicidal action in percent) (AMARE [24]) | Pre-emergence action against ALOMY (herbicidal activity in percent) (ALOMY [25]) | Pre-emergence action against AVEFA (herbicidal activity) (AVEFA [26]) | Pre-emergence action against VIOTR (VIOTR [9]; Dosage 320 g/ha, pre-emergence) | Pre-emergence action against AMARE (herbicidal activity) (AMARE [10]; [28]) | further results
1 | Cn1nnnc1NC(=O)c1ccc(C(F)(F)F)c(C(=O)C(C)(C)C)c1Cl [1-143] | – | – | – | – | – | – | – | – | – | – | – | – | – | – | – | – | – | – | – | – | pest or weed control at 80 g/ha (STEME [1]; Stellaria media, 504 h): 100%; pest or weed control at 320 g/ha (SETVI [2]; Setaria viridis, 504 h, read-out: SETVI (Table B8, pre-emergence herbicidal activity)): 90%; pest or weed control at 320 g/ha (STEME [3]; Stellaria media, 504 h): 100%; pest or weed control at 320 g/ha (ABUTH [4]; Abutilon theophrasti, 504 h, pre-emergence, dosage 320 g/ha, scored visually after 3 weeks vs untreated controls, read-out: Pre-emergence action against ABUTH (herbicidal activity)): 100%; pest or weed control at 320 g/ha (LOLRI; Lolium rigidum, 504 h, read-out: Pre-emergence action against LOLRI (herbicidal activity)): 80%; pest or weed control at 320 g/ha (MATIN [5]; Tripleurospermum inodorum, 504 h, Dosage 320 g/ha, pre-emergence): 100%; pest or weed control at 320 g/ha (ECHCG [6]; Echinochloa crus-galli, 504 h, read-out: Pre-emergence action against ECHCG (herbicidal activity)): 100%; pest or weed control at 320 g/ha (VERPE [7]; Veronica persica, 504 h): 100%; pest or weed control at 320 g/ha (CYPES [8]; Cyperus esculentus, 504 h, read-out: Pre-emergence action against CYPES (herbicidal activity)): 90%; pest or weed control at 320 g/ha (VIOTR [9]; Viola tricolor, 504 h, Dosage 320 g/ha, pre-emergence): 100%; pest or weed control at 320 g/ha (AMARE [10]; Amaranthus retroflexus, 504 h, pre-emergence, dosage 320 g/ha, scored visually after 3 weeks vs untreated controls, read-out: Pre-emergence action against AMARE (herbicidal activity)): 100%
2 | CCn1nnnc1NC(=O)c1ccc(S(C)(=O)=O)c(C(=O)C2CC2)c1C [2-9] | 100 | 100% | 100 | 100% | 100% | 90% | 90% | 100% | 100% | 90% | 100% | 90% | 90% | 100 | 100 | 100% | 90% | 100% | 100% | 100% | Herbicidal efficacy against ABUTH (ABUTH [4]; [27]): 100; Herbicidal efficacy against MATIN (MATIN [12]; [29]): 90; Herbicidal efficacy against POLCO (POLCO [14]; [30]): 100; Post-emergence action against POLCO (POLCO [14]): 100; Herbicidal efficacy against ABUTH (ABUTH [15]; [30]): 90; Pre-emergence action against POLCO (POLCO [16]): 80%; Herbicidal efficacy against MATIN (MATIN [5]; [27]): 80; Post-emergence action against AVEFA (herbicidal action in percent) (AVEFA [18]): 100%; Herbicidal efficacy against CYPES (CYPES [20]; [30]): 90; Post-emergence action against CYPES (herbicidal action in percent) (CYPES [20]): 90%; Post-emergence action against ALOMY (ALOMY [21]; Dosage 80 g/ha, post-emergence): 90%; Herbicidal efficacy against ALOMY (ALOMY [21]; [30]): 90; Herbicidal efficacy against VIOTR (VIOTR [23]; [29]): 100; Herbicidal efficacy against VIOTR (VIOTR [9]; Table V7, pre-emergence): 90; Herbicidal efficacy against VIOTR (VIOTR [9]; Table V13, pre-emergence): 90; Herbicidal efficacy against AMARE (AMARE [10]; Table V13, pre-emergence, 20 g of a.i./ha): 100
3 | CCn1nnnc1NC(=O)c1ccc(C(F)(F)F)c(C(=O)COC)c1Cl [2-144] | 100 | 100% | 90 | 100% | 90% | 100% | 90% | 100% | 100% | 100% | 100% | 100% | 100% | 100 | 100 | 100% | 100% | 100% | 100% | 100% | Pre-emergence action against STEME (STEME [3]): 100%; Pre-emergence action against LOLRI (herbicidal activity) (LOLRI): 100%
4 | CCCn1nnnc1NC(=O)c1ccc(C(F)F)c(C(C)=O)c1Cl [3-164] | 100 | 100% | – | 100% | 100% | 100% | 90% | 100% | 100% | 90% | 100% | 100% | 100% | 100 | 100 | 100% | 90% | 100% | 100% | 100% | Pre-emergence action against STEME (STEME [3]): 100%; Pre-emergence action against LOLRI (herbicidal activity) (LOLRI): 90%; Post-emergence action against POLCO (POLCO [14]): 80; Pre-emergence action against POLCO (POLCO [16]): 100%; Post-emergence action against AVEFA (herbicidal action in percent) (AVEFA [18]): 80%; Post-emergence action against CYPES (herbicidal action in percent) (CYPES [20]): 90%
